Here are results for 5 substances from patent US7514076B2, “Antitumor agents” (priority 1997, dated 2009).

Data set [1] relates to S180 solid tumor. In words: Antitumor effect of PEG-DAO on S180 solid tumor model. The class given is in vivo, ddY mice. As to conditions: 1.5 U i.v. day 7, D-proline 0.5 mmol i.p. 2 and 4 hrs after; FIG. 10. As for the experimental part:
S180 cells (2×10^6 cells) were inoculated subcutaneously to ddY mice. Seven days after tumor inoculation, mice were injected i.v. with 1.5 U of native DAO or PEG-DAO followed by D-proline 0.5 mmol, i.p. (2 and 4 hrs after DAO administration).
In the FIG. 10, —●— indicates the result of treated mice by administration of PEG-DAO by […]. injection with D-proline, and —▴— indicates the result of administration of native DAO similarly with D-proline. —◯— indicates the result of control mice without any drug treatment Data are means (n=4-8)±SE (standard error). […] Thus, in vivo activity of PEG-DAO is excellent.

Data set [2] is described as follows: Enzyme activity of PEG-XO: formation of uric acid from hypoxanthine (absorbance at 290 nm). As to conditions: for XO activity: 50 μM hypoxanthine, 50 mM sodium phosphate buffer pH 7.4, room temperature; for enzyme activity compared with native XO: relative to native XO. It is filed as biochemical. As for the experimental part: The enzyme activity was determined by quantifying the formation of uric acid from hypoxanthine by measuring the increase of absorbance at 290 nm, an absorption maximum of uric acid. The initial concentration of the substrate hypoxanthine was 50 μM. The enzyme reaction was carried out in 50 mM sodium phosphate buffer (pH 7.4) at room temperature. One unit of XO activity is defined as the velocity of the formation of 1 μmol of uric acid per min.

Data set [3] has as its system S-180 solid tumor. In words: Antitumor activity of PEG-XO in vivo with hypoxanthine. As to conditions: for suppression of the tumor growth: FIG. 1. Also on record: species or system ddY mice. As for the experimental part:
When the tumors became palpable (5-7 mm in diameter), usually 7 days after implantation, the treatment was resumed.
Hypoxanthine (13.3 mg/kg) was injected intraperitoneally six times, each time more than 6 hrs after the last time, as indicated by asterisks (*) in the FIG. 1 to 3.

For data set [4] the following is noted: Bray and Swann 1972; confirmed by the inventors; cited from earlier work.
The nature of data set [5]: Systemic side effect of PEG-XO-high/hypoxanthine. Conditions: PEG-XO/hypoxanthine therapy. The class given is in vivo.
Data set [6] in a line: Time course of tumor accumulation of PEG-XO-high (XO activity in tumor homogenate, pterin substrate). The class given is in vivo, ddY mice. As for the experimental part: The time course of the tumor accumulation of PEG-XO-high was examined by measuring the enzyme activity derived from PEG-XO-high in the tumor tissue. Tumor bearing mice were prepared as described above. PEG-XO-high (2 U/ml, 100 μl) was injected intravenously (i.v.) to the mice. After a given period, the tumor tissue was removed as described above. The tumor tissue was then homogenized with three volumes of 20 mM potassium phosphate buffer pH 7.6 which contained 2 mM ethylenediaminetetraacetic acid, 2 mM amidinophenylmethanesulfonyl fluoride, 10 mM dithiothreitol, 0.5 μg/ml of leupeptin. The homogenates were centrifuged at 10,000 g for 20 min, and each supernatant was applied to a FPLC system with a Superose 6 HR 10/30 column similar to the previous section. The enzyme activity of the PEG-XO-high fraction was determined fluorometrically, i.e., the formation of fluorescent isoxanthopterin from pterin was measured with an excitation at 345 nm and an emission at 390 nm, in which hypoxanthine was replaced with pterin as substrate. The quantification was made using the calibration curve of the authentic isoxanthopterin (Aldrich Chemical, Milwaukee, Wis.).

[7] abbreviates: 2 administrations 0.6 U/mouse, hypoxanthine 13.3 mg/kg i.p.
The mark [8] stands for this setting: 15 days after tumor inoculation, 2 times 0.6 U/mouse i.v. (day 7, 9), hypoxanthine 13.3 mg/kg i.p. six times.

For D-amino acid oxidase [native DAO], the “suppression of the tumor growth” value in data set [1] was “no significant reduction of the tumor growth”.
Consider xanthine oxidase [Native-XO], for which, in data set [2], the XO activity is 2.12 U/mg protein. Further, in data set [3] (setting [7]), the “suppression of the tumor growth” value is “no significant reduction of the tumor growth”. The substance also registered a weight of tumor in data set [3] (setting [8]) of 0.31 ± 0.03 g. Further, the “antitumor effect of native XO (literature)” value in data set [4] is reported as “insignificant”.
“PEG-XO-low: Xanthine oxidase conjugated with succinimide activated-PEG (Mw 5000), 17% of amino groups modified”: in data set [2], the XO activity is 2.40 U/mg protein and the “enzyme activity compared with native XO” value was 110%.
Consider “PEG-XO: Chemically conjugated XO with poly(ethylene glycol); generic term, in vivo work used PEG-XO-high”, for which the “hematotoxicity or liver toxicity” value in data set [5] is “No serious or significant hematotoxicity or liver toxicity”.
Regarding “PEG-XO-high: Xanthine oxidase conjugated with succinimide activated-PEG (Mw 5000), 49% of amino groups modified”, the “XO activity in S-180 solid tumor tissue after injection” value in data set [6] (0.2 U/mouse i.v., 24 hrs, FIG. 6B) is “a new large peak of XO activity was observed”. In data set [6] (FIG. 7), the “PEG-XO-high activity in tumor over time” value is recorded as “increased in a time dependent manner”. The same substance registered an XO activity in data set [2] of 1.15 U/mg protein. Moreover, in data set [2], the “enzyme activity compared with native XO” value was 54%. Besides, the “suppression of the tumor growth” value in data set [3] (setting [7]) is listed as “significant (p<0.05) suppression of the tumor growth”. Besides, the “antitumor activity” value in data set [3] (3 administrations 0.6 U/mouse, hypoxanthine 13.3 mg/kg i.p., FIG. 2) is listed as “remarkable antitumor activity”. The weight of tumor in data set [3] (13 days after tumor inoculation, 3 times 0.6 U/mouse i.v. (day 7, 8, 9), hypoxanthine 13.3 mg/kg i.p. 6 times) worked out at 0.13 ± 0.08 g; in data set [3] (setting [8]), 0.22 ± 0.05 g. In data set [3] (day 13, 3 administrations 0.6 U/mouse, hypoxanthine 13.3 mg/kg i.p.), the “inhibition of tumor growth” value came out at 77%. Further, the “inhibition of the tumor growth” value in data set [3] (day 15, 2 administrations 0.6 U/mouse, hypoxanthine 13.3 mg/kg i.p.) worked out at 39%.
